Data reported in ChEMBL document CHEMBL1201862, “PubChem BioAssay data set” (2004).
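In this assay, cells in 96-well plates receive the compound at five concentrations for 48 hours. Endpoints are linearly interpolated between the surrounding concentrations. GI50 marks 50% less growth.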 The source made the active and inactive calls. Rule as the data show it: active = GI50 up to about 1.1 µM and inactive = higher.

Columns and labels:
Assay in all cases: DTP human tumour cell line panel, 48 h
[1] = test system: DLD-1
[2] = test system: DMS-114
[3] = test system: DMS-273
[4] = test system: HOP-18
[5] = test system: KM-20L2
[6] = test system: RXF 631
[7] = test system: SNB-78
[8] = test system: XF498

OCC1OC(c2nc(C3=NCCCN3)cs2)C(O)C1O (stereo unspecified)
GI50 [1]: > 100 µM (inactive) | GI50 [2]: > 100 µM (inactive) | GI50 [3]: > 100 µM (inactive) | GI50 [4]: > 100 µM (inactive) | GI50 [5]: > 100 µM (inactive) | GI50 [6]: > 100 µM (inactive) | GI50 [7]: > 100 µM (inactive) | GI50 [8]: > 100 µM (inactive)

COc1ccc(OC)c(NCC#N)c1
GI50 [2]: > 100 µM (inactive) | GI50 [3]: > 100 µM (inactive) | GI50 [4]: > 100 µM (inactive) | GI50 [5]: > 100 µM (inactive) | GI50 [6]: > 100 µM (inactive) | GI50 [8]: > 100 µM (inactive)

CCOc1cccc2nc3cccc(C(=O)NCCN(C)C)c3nc12
GI50 [1]: 1.05 µM (active) | GI50 [2]: 1.03 µM (active) | GI50 [3]: 0.582 µM (active) | GI50 [4]: 3.94 µM (inactive) | GI50 [5]: 1.27 µM (inactive) | GI50 [6]: 2.6 µM (inactive) | GI50 [7]: 1.88 µM (inactive) | GI50 [8]: 0.116 µM (active)

CC(=O)OCCOCNC(=S)N/N=C/c1cc([N+](=O)[O-])ccc1O
GI50 [1]: > 100 µM (inactive) | GI50 [2]: 30.7 µM (inactive) | GI50 [3]: > 100 µM (inactive) | GI50 [4]: > 100 µM (inactive) | GI50 [5]: 61.1 µM (inactive) | GI50 [6]: > 100 µM (inactive) | GI50 [7]: > 100 µM (inactive) | GI50 [8]: > 100 µM (inactive)

CC(=O)OCCOCNC(=S)N/N=C/c1ccc2ccccc2n1
GI50 [1]: 54.1 µM (inactive) | GI50 [2]: 22.6 µM (inactive) | GI50 [3]: 36.1 µM (inactive) | GI50 [4]: 75.9 µM (inactive) | GI50 [5]: 19.5 µM (inactive) | GI50 [6]: 55.6 µM (inactive) | GI50 [7]: > 100 µM (inactive) | GI50 [8]: > 100 µM (inactive)

C=CCC1[C@@H](C(C)(C)C(C(C)=O)C(=O)C(=O)OC)OC(C(C)(C)C)N1C(=O)OC (stereo partly specified)
GI50 [1]: > 100 µM (inactive) | GI50 [4]: > 100 µM (inactive) | GI50 [5]: > 100 µM (inactive) | GI50 [6]: > 100 µM (inactive) | GI50 [7]: > 100 µM (inactive) | GI50 [8]: > 100 µM (inactive)

COc1cc(OC)c2c(c1)C(=O)C(CC1(C)OCCCO1)=CC2=O
GI50 [1]: 4.17 µM (inactive) | GI50 [2]: 6.11 µM (inactive) | GI50 [3]: 7.48 µM (inactive) | GI50 [4]: 13 µM (inactive) | GI50 [5]: 14.1 µM (inactive) | GI50 [6]: 22.3 µM (inactive) | GI50 [7]: 7.96 µM (inactive) | GI50 [8]: 9.48 µM (inactive)

COc1cc2c(c(OC)c1OC)-c1ccc(OC)c(=O)cc1[C@@H](N(C)C=O)CC2
GI50 [1]: 0.0198 µM (active) | GI50 [3]: 0.0116 µM (active) | GI50 [4]: > 100 µM (inactive) | GI50 [5]: 0.0133 µM (active) | GI50 [6]: 0.0244 µM (active) | GI50 [7]: 0.0135 µM (active) | GI50 [8]: 0.112 µM (active)

C[P+]1(c2ccccc2)CCCCC1
GI50 [1]: > 100 µM (inactive) | GI50 [2]: > 100 µM (inactive) | GI50 [3]: > 100 µM (inactive) | GI50 [4]: 0.0484 µM (active) | GI50 [5]: > 100 µM (inactive) | GI50 [6]: > 100 µM (inactive) | GI50 [7]: > 100 µM (inactive)
